This note sets out measurements from US20230263822A1, “MODULATION OF FACTOR 11 EXPRESSION” (Ionis Pharmaceuticals, Inc., priority 2008, published 2023).

One data set concerns human Factor 11 mRNA. In words: Dose-dependent inhibition of human Factor 11 in HepB3 cells, lipofectin (Example 7). The class given is cell-based. To be noted: for percent inhibition of Factor 11 mRNA relative to untreated control cells: ~16 hours. The protocol:
Cells were plated at a density of 4,000 cells per well and transfected using lipofectin reagent with 2.3 nM, 4.7 nM, 9.4 nM, 18.75 nM, 37.5 nM, and 75 nM concentrations of antisense oligonucleotide, as specified in Table 14. After a treatment period of approximately 16 hours, RNA was isolated from the cells and human Factor 11 mRNA levels were measured by quantitative real-time PCR. Human Factor 11 primer probe set RTS 2966 was used to measure mRNA levels. Factor 11 mRNA levels were adjusted according to total RNA content, as measured by RIBOGREEN. Results are presented as percent inhibition of Factor 11, relative to untreated control cells.

Data set [1] in a line: Tolerability in Sprague-Dawley rats: body weight and organ weight (Example 35). The following applies: 50 mg/kg s.c. twice per week for 6 weeks; for Percent change: Body weight: percent change over the weights at the start of the study; for Percent change in organ weight: Kidney / Percent change in organ weight: Liver / Percent change in organ weight: Spleen: vs saline control, normalized to body weight. Type of data set: in vivo. The text has this: Urine samples were taken before the start of treatment.
The body weights are presented in Table 71 and are expressed as a percent change over the weights taken at the start of the study.

In the data set with human Factor 11 mRNA, “417002 (antisense GGTGCACAGTTTCTGGCAGG; 2-13-5 gapmer chemistry, further chemistry not given here) [compound 417002]” gave an IC50 of 13 nM. Further, the “percent inhibition of Factor 11 mRNA relative to untreated control cells” value in the data set with human Factor 11 mRNA (2.3 nM) is 24%; in the data set with human Factor 11 mRNA (4.7 nM) it was 30%; in the data set on human Factor 11 mRNA (9.4 nM) it was 46%; in the data set with human Factor 11 mRNA (18.75 nM), 57%; in the data set with human Factor 11 mRNA (37.5 nM), 71%; in the data set with human Factor 11 mRNA (75 nM), 65%. For the same substance, the “Percent change: Body weight” value in data set [1] was −29%. For the same substance, the “Percent change in organ weight: Kidney” value in data set [1] is “+63%”. Besides, in data set [1], the “Percent change in organ weight: Liver” value was “+27%”. In addition, the “Percent change in organ weight: Spleen” value in data set [1] was “+446%”.
In the case of “416999 (antisense GCACAGTTTCTGGCAGGCCT; 2-13-5 gapmer chemistry, further chemistry not given here) [compound 416999]”, half-maximal inhibition with human Factor 11 mRNA (IC50) required 12 nM. For the same substance, the “percent inhibition of Factor 11 mRNA relative to untreated control cells” value in the data set with human Factor 11 mRNA (2.3 nM) was determined as 19%; in the data set on human Factor 11 mRNA (4.7 nM) it was 33%; in the data set with human Factor 11 mRNA (9.4 nM) it was 42%; in the data set with human Factor 11 mRNA (18.75 nM) it was 60%; in the data set with human Factor 11 mRNA (37.5 nM) it was 71%; with human Factor 11 mRNA (75 nM), 59%. Moreover, the “Percent change: Body weight” value in data set [1] was −37%. The “Percent change in organ weight: Kidney” value in data set [1] was “+71%”. In addition, the “Percent change in organ weight: Liver” value in data set [1] is on record as “+51%”. In addition, the “Percent change in organ weight: Spleen” value in data set [1] is reported as “+405%”.
The substance “416925 (antisense GGTGCACAGTTTCTGGCAGG; 3-14-3 gapmer chemistry, further chemistry not given here) [compound 416925]” returned an IC50 in the data set on human Factor 11 mRNA of 12 nM. Further, the “percent inhibition of Factor 11 mRNA relative to untreated control cells” value turned out to be 26% in the data set with human Factor 11 mRNA (2.3 nM); 33% in the data set on human Factor 11 mRNA (4.7 nM); 45% with human Factor 11 mRNA (9.4 nM); 59% with human Factor 11 mRNA (18.75 nM); 72% in the data set on human Factor 11 mRNA (37.5 nM); 60% in the data set on human Factor 11 mRNA (75 nM). Further, in data set [1], the “Percent change: Body weight” value is −32%. For the same substance, the “Percent change in organ weight: Kidney” value in data set [1] is recorded as “+48%”. In addition, in data set [1], the “Percent change in organ weight: Liver” value is given as “+44%”. Moreover, the “Percent change in organ weight: Spleen” value in data set [1] was “+371%”.
In the data set with human Factor 11 mRNA, “416826 (antisense ATGCCCTTCATGTCTAGGTC; 5-10-5 gapmer, further chemistry not given here) [compound 416826]” displayed an IC50 of 16 nM. Besides, the “percent inhibition of Factor 11 mRNA relative to untreated control cells” value with human Factor 11 mRNA (2.3 nM) is 16%; with human Factor 11 mRNA (4.7 nM) it was 28%; in the data set on human Factor 11 mRNA (9.4 nM), 38%; with human Factor 11 mRNA (18.75 nM), 55%; with human Factor 11 mRNA (37.5 nM) it was 64%; in the data set with human Factor 11 mRNA (75 nM), 66%. The “Percent change: Body weight” value in data set [1] is −40%. Besides, the “Percent change in organ weight: Kidney” value in data set [1] is “+44%”. Besides, the “Percent change in organ weight: Liver” value in data set [1] is given as “+81%”. Besides, the “Percent change in organ weight: Spleen” value in data set [1] is reported as “+537%”.
Consider “416825 (antisense GCCCTTCATGTCTAGGTCCA; 5-10-5 gapmer, further chemistry not given here) [compound 416825]”, for which the IC50 with human Factor 11 mRNA is 35 nM. Also, the “percent inhibition of Factor 11 mRNA relative to untreated control cells” value stood at 0% with human Factor 11 mRNA (2.3 nM); 15% in the data set on human Factor 11 mRNA (4.7 nM); 34% in the data set on human Factor 11 mRNA (9.4 nM); 36% in the data set with human Factor 11 mRNA (18.75 nM); 53% with human Factor 11 mRNA (37.5 nM); 59% with human Factor 11 mRNA (75 nM). Moreover, the “Percent change: Body weight” value in data set [1] is recorded as −18%. The “Percent change in organ weight: Kidney” value in data set [1] was “+25%”. The “Percent change in organ weight: Liver” value in data set [1] is “+20%”. Moreover, the “Percent change in organ weight: Spleen” value in data set [1] is given as “+245%”.
For the substance “417003 (antisense TGGTGCACAGTTTCTGGCAG; 2-13-5 gapmer chemistry, further chemistry not given here) [compound 417003]”, half-maximal inhibition with human Factor 11 mRNA (IC50) required 17 nM. Also, the “percent inhibition of Factor 11 mRNA relative to untreated control cells” value was 11% in the data set on human Factor 11 mRNA (2.3 nM); 28% in the data set with human Factor 11 mRNA (4.7 nM); 40% in the data set with human Factor 11 mRNA (9.4 nM); 40% in the data set with human Factor 11 mRNA (18.75 nM); 63% in the data set with human Factor 11 mRNA (37.5 nM); 58% in the data set on human Factor 11 mRNA (75 nM). Moreover, the “Percent change: Body weight” value in data set [1] is recorded as −40%. Moreover, the “Percent change in organ weight: Kidney” value in data set [1] was “+25%”. Also, the “Percent change in organ weight: Liver” value in data set [1] is listed as “+51%”. The “Percent change in organ weight: Spleen” value in data set [1] is “+522%”.
Consider “416864 (antisense GGCAGCGGACGGCATTGGTG; 5-10-5 gapmer, further chemistry not given here) [compound 416864]”, for which half-maximal inhibition with human Factor 11 mRNA (IC50) required 9 nM. Further, the “percent inhibition of Factor 11 mRNA relative to untreated control cells” value came to 24% in the data set with human Factor 11 mRNA (2.3 nM); 37% with human Factor 11 mRNA (4.7 nM); 42% with human Factor 11 mRNA (9.4 nM); 66% with human Factor 11 mRNA (18.75 nM); 76% in the data set on human Factor 11 mRNA (37.5 nM); 63% with human Factor 11 mRNA (75 nM). Further, the “Percent change: Body weight” value in data set [1] is listed as −24%. Further, the “Percent change in organ weight: Kidney” value in data set [1] was “+16%”. Also, the “Percent change in organ weight: Liver” value in data set [1] was “+16%”. Moreover, in data set [1], the “Percent change in organ weight: Spleen” value is “+204%”.
In the data set with human Factor 11 mRNA, “416838 (antisense GCAACCGGGATGATGAGTGC; 5-10-5 gapmer, further chemistry not given here) [compound 416838]” showed an IC50 of 11 nM. Further, the “percent inhibition of Factor 11 mRNA relative to untreated control cells” value with human Factor 11 mRNA (2.3 nM) amounted to 23%; with human Factor 11 mRNA (4.7 nM), 34%; in the data set with human Factor 11 mRNA (9.4 nM), 43%; in the data set on human Factor 11 mRNA (18.75 nM), 59%; with human Factor 11 mRNA (37.5 nM), 71%; with human Factor 11 mRNA (75 nM), 56%. Moreover, the “Percent change: Body weight” value in data set [1] was −23%. In data set [1], the “Percent change in organ weight: Kidney” value was −0.5%. Moreover, the “Percent change in organ weight: Liver” value in data set [1] is “+8%”. Moreover, the “Percent change in organ weight: Spleen” value in data set [1] is “+212%”.
Turning to “416892 (antisense GCCCTTCATGTCTAGGTCCA; 3-14-3 chimeric gapmer, further chemistry not given here) [compound 416892]”, in the data set on human Factor 11 mRNA, the IC50 stood at 9 nM. Besides, the “percent inhibition of Factor 11 mRNA relative to untreated control cells” value in the data set on human Factor 11 mRNA (2.3 nM) came to 28%; in the data set with human Factor 11 mRNA (4.7 nM), 34%; in the data set with human Factor 11 mRNA (9.4 nM), 50%; with human Factor 11 mRNA (18.75 nM) it was 68%; with human Factor 11 mRNA (37.5 nM), 82%; in the data set on human Factor 11 mRNA (75 nM), 72%. In addition, the “Percent change: Body weight” value in data set [1] is given as −39%. The “Percent change in organ weight: Kidney” value in data set [1] is recorded as “+32%”. Moreover, the “Percent change in organ weight: Liver” value in data set [1] is on record as “+38%”. In addition, the “Percent change in organ weight: Spleen” value in data set [1] was “+151%”.
